Source: patent US8273890B2 (4SC AG, priority 2007, dated 2012)

Target: T1, recombinant Plk1 protein (Homo sapiens, UniProt P53350)
T1 construct: histidine tag (N); made in house; host or cells: SF9 insect cells
Assay: Plk1 kinase activity inhibition assay (33P-ATP, alpha casein substrate, flash plates)
Assay type: biochemical
Conditions: enzymatic assay, 100 nM Li-ATP, 80 minutes at 30° C.
Description: The inhibition of Plk1 kinase activity can be measured using recombinant Plk1 protein expressed as an N-terminally histidine-tagged protein in SF9 insect cells and alpha casein as substrate. The Plk1 assay is run in 96 well plates by incubating 50 to 100 ng per well recombinant Plk1, 500 ng per well alpha casein (Sigma, # C-6780) as substrate, 10 μl of compound of invention (test compounds were dissolved as 20 mM solutions in dimethylsulfoxide (DMSO) and subsequently diluted), and 100 nM Li-ATP (including ^33P-ATP) in 100 μl of reaction buffer ([…] HEPES, pH 7.5; 3 mM MgCl2; 3 mM MnCl2; 3 μM Na-Orthovanadat; 1 mM DTT; 1 μg/ml PEG 8000) for 80 minutes at 30° C. The reactions are terminated by adding 100 μl stopping buffer (2% H3PO4 for 5 minutes) and are washed 3 times with washing solution (0.9% NaCl). Determining ^33P incorporated into the protein substrate alpha casein, the detection is based on the adhesion of the phosphorylated protein to the surface of scintillator-coated flash plates (Perkin Elmer, USA; #SMP-200). Phosphorylation of alpha casein is measured by counting the radioactivity bound to the plate for 60 sec. using a plate reader (Perkin Elmer, USA; Wallac Microbeta). By this method, the IC50 value of the Plk1 inhibition is determined as described above.

T1 sequence (P53350 whole entry): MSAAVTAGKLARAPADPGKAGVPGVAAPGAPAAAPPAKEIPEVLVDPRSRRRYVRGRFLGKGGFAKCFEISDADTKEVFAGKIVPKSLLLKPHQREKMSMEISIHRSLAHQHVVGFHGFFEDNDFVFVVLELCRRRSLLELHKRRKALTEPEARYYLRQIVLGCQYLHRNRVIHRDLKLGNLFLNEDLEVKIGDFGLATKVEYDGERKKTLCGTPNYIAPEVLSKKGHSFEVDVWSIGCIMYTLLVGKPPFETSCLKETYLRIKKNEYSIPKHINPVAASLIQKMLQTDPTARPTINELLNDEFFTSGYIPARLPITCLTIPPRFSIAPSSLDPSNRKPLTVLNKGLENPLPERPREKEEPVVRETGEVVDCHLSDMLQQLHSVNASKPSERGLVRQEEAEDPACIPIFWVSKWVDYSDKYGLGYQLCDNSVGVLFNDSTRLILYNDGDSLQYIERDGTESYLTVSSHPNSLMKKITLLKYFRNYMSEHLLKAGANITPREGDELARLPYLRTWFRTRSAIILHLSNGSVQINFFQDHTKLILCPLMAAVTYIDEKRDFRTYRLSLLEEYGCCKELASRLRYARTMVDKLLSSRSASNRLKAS

IC50 [nM]	SMILES
< 10	CC(C)N1CCN(Cc2cc3c(cn2)ncn3-c2cc(O[C@H](C)c3ccccc3C(F)(F)F)c(C(N)=O)s2)CC1 [Example 121, 5-{6-[(4-isopropylpiperazin-1-yl)methyl]-1H-imidazo[4,5-c]pyridin-1-yl}-3-{(1R)-1-[2-(trifluoromethyl)phenyl]ethoxy}thiophene-2-carboxamide]
10 to 100	CC(Oc1cc(-n2cnc3cnccc32)sc1C(N)=O)c1ccccc1Cl (centres unmarked) [Example 15, 3-[1-(2-Chlorophenyl)ethoxy]-5-(1H-imidazo[4,5-c]pyridin-1-yl)thio-phene-2-carboxamide]
< 10	C[C@@H](Oc1cc(-n2cnc3cnc(CN4CCN(C)C(=O)C4)cc32)sc1C(N)=O)c1ccccc1C(F)(F)F [Example 72, 5-{6-[(4-methyl-3-oxopiperazin-1-yl)methyl]-1H-imidazo[4,5-c]pyridin-1-yl}-3-{(1R)-1-[2-(trifluoromethyl)phenyl]ethoxy}thiophene-2-carboxamide]
10 to 100	C[C@@H](Oc1cc(-n2cnc3cnc(CN4CCN(C5CCCCC5)CC4)cc32)sc1C(N)=O)c1ccccc1C(F)(F)F [Example 106, 5-{6-[(4-cyclohexylpiperazin-1-yl)methyl]-1H-imidazo[4,5-c]pyridin-1-yl}-3-{(1R)-1-[2-(trifluoromethyl)phenyl]ethoxy}thiophene-2-carboxamide]
10 to 100	CC1CCN(Cc2cc3c(cn2)ncn3-c2cc(O[C@H](C)c3ccccc3C(F)(F)F)c(C(N)=O)s2)CC1 [Example 93, 5-{6-[(4-methylpiperidin-1-yl)methyl]-1H-imidazo[4,5-c]pyridin-1-yl}-3-{(1R)-1-[2-(trifluoromethyl)phenyl]ethoxy}thiophene-2-carboxamide]
10 to 100	CNCc1cc2ncn(-c3cc(O[C@H](C)c4ccccc4C(F)(F)F)c(C(N)=O)s3)c2cn1 [Example 116, 5-{6-[(methylamino)methyl]3H-imidazo[4,5-c]pyridin-3-yl}-3-{(1R)-1-[2-(trifluoromethyl)phenyl]ethoxy}thiophene-2-carboxamide]
10 to 100	COc1cc2ncn(-c3cc(OCc4ccccc4C(F)(F)F)c(C(N)=O)s3)c2cn1 [Example 17, 5-(6-Methoxy-3H-imidazo[4,5-c]pyridin-3-yl)-3-{[2-(trifluoromethyl)benzyl]oxy}thiophene-2-carboxamide]
< 10	C[C@@H](Oc1cc(-n2cnc3cnc(CN4CCNCC4)cc32)sc1C(N)=O)c1ccccc1C(F)(F)F [Example 92]
100 to 1000	COCCNC(=O)c1cc2c(cn1)ncn2-c1cc(OCc2ccccc2C(F)(F)F)c(C(N)=O)s1 [Example 4, 1-(5-Carbamoyl-4-{[2-(trifluoromethyl)benzyl]oxy}-2-thienyl)-N-(2-methoxyethyl)-1H-imidazo[4,5-c]pyridine-6-carboxamide]
100 to 1000	NC(=O)c1sc(-n2cnc3ccncc32)cc1OCc1cccc(C(F)(F)F)c1 [Example 30, 5-(3H-imidazo[4,5-c]pyridin-3-yl)-3-{[3-(trifluoromethyl)benzyl]oxy}thiophene-2-carboxamide]
10 to 100	CCC(Oc1cc(-n2cnc3cnc(CN4CCN(C)CC4)cc32)sc1C(N)=O)c1ccccc1Cl (centres unmarked) [Example 102, 3-{[1-(2-chlorophenyl)propyl]oxy}-5-{6-[(4-methylpiperazin-1-yl)methyl]-1H-imidazo[4,5-c]pyridin-1-yl}thiophene-2-carboxamide]
10 to 100	CCN1CCN(Cc2cc3c(cn2)ncn3-c2cc(OC(C)c3ccccc3F)c(C(N)=O)s2)CC1 (centres unmarked) [Example 152, 5-{6-[(4-ethylpiperazin-1-yl)methyl]-1H-imidazo[4,5-c]pyridin-1-yl}-3-[1-(2-fluorophenyl)ethoxy]thiophene-2-carboxamide]
< 10	CC1CN(Cc2cc3c(cn2)ncn3-c2cc(O[C@H](C)c3ccccc3C(F)(F)F)c(C(N)=O)s2)CCN1C (stereo partly drawn) [Example 74, 5-{6-[(3,4-dimethylpiperazin-1-yl)methyl]-1H-imidazo[4,5-c]pyridin-1-yl}-3-{(1R)-1-[2-(trifluoromethyl)phenyl]ethoxy}thiophene-2-carboxamide]
10 to 100	C[C@@H](Oc1cc(-n2cnc3cc(CN)ncc32)sc1C(N)=O)c1ccccc1C(F)(F)F [Example 50, 5-[6-(aminomethyl)-3H-imidazo[4,5-c]pyridin-3-yl]-3-{(1R)-1-[2-(trifluoromethyl)phenyl]ethoxy}thiophene-2-carboxamide]
10 to 100	COc1ccc2c(ncn2-c2cc(OCc3ccccc3C(F)(F)F)c(C(N)=O)s2)n1 [Example 23, 5-(5-methoxy-1H-imidazo[4,5-b]pyridin-1-yl)-3-{[2-(trifluoromethyl)benzyl]oxy}thiophene-2-carboxamide]
< 10	CC(Oc1cc(-n2cnc3cnc(CO)cc32)sc1C(N)=O)c1ccccc1OC(F)F (centres unmarked) [Example 53]
10 to 100	CC(=O)N1CCN(Cc2cc3c(cn2)ncn3-c2cc(O[C@H](C)c3ccccc3C(F)(F)F)c(C(N)=O)s2)CC1 [Example 118, 5-{6-[(4-acetylpiperazin-1-yl)methyl]-1H-imidazo[4,5-c]pyridin-1-yl}-3-{(1R)-1-[2-(trifluoromethyl)phenyl]ethoxy}thiophene-2-carboxamide]
< 10	NC(=O)c1sc(-n2cnc3cnc(CO)cc32)cc1O[C@@H](CO)c1ccccc1Cl [Example 146, 3-[(1R)-1-(2-chlorophenyl)-2-hydroxyethoxy]-5-[6-(hydroxymethyl)-1H-imidazo[4,5-c]pyridin-1-yl]thiophene-2-carboxamide]
10 to 100	NC(=O)c1sc(-n2cnc3cnc(CNC4CC4)cc32)cc1OCc1ccccc1C(F)(F)F [Example 7, 5-{6-[(Cyclopropylamino)methyl]-1H-imidazo[4,5-c]pyridin-1-yl}-3-{[2-(trifluoromethyl)benzyl]oxy}thiophene-2-carboxamide]
< 10	CC(Oc1cc(-n2cnc3cnc(CN4CCN(C)CC4)cc32)sc1C(N)=O)c1ccc(F)cc1C(F)(F)F (centres unmarked) [Example 97, 3-{1-[4-fluoro-2-(trifluoromethyl)phenyl]ethoxy}-5-{6-[(4-methylpiperazin-1-yl)methyl]-1H-imidazo[4,5-c]pyridin-1-yl}thiophene-2-carboxamide]
< 10	C[C@@H](Oc1cc(-n2cnc3cnc(CN4CCC(O)CC4)cc32)sc1C(N)=O)c1ccccc1C(F)(F)F [Example 64, 5-{6-[(4-hydroxypiperidin-1-yl)methyl]-1H-imidazo[4,5-c]pyridin-1-yl}-3-{(1R)-1-[2-(trifluoromethyl)phenyl]ethoxy}thiophene-2-carboxamide]
10 to 100	C[C@@H](Oc1cc(-n2cnc3cnc(CN4CCN(C(=O)C(F)(F)F)CC4)cc32)sc1C(N)=O)c1ccccc1C(F)(F)F [Example 159, 5-(6-{[4-(trifluoroacetyl)piperazin-1-yl]methyl}-1H-imidazo[4,5-c]pyridin-1-yl)-3-{(1R)-1-[2-(trifluoromethyl)phenyl]ethoxy}thiophene-2-carboxamide]
100 to 1000	NC(=O)c1sc(-n2cnc3cnccc32)cc1OCc1ccc(C(F)(F)F)cc1 [Example 36, 5-(1H-imidazo[4,5-c]pyridin-1-yl)-3-{[4-(trifluoromethyl)benzyl]oxy}thiophene-2-carboxamide]
< 10	CC(C)CN1CCN(Cc2cc3c(cn2)ncn3-c2cc(O[C@H](C)c3ccccc3C(F)(F)F)c(C(N)=O)s2)CC1 [Example 120, 5-{6-[(4-isobutylpiperazin-1-yl)methyl]-1H-imidazo[4,5-c]pyridin-1-yl}-3-{(1R)-1-[2-(trifluoromethyl)phenyl]ethoxy}thiophene-2-carboxamide]
10 to 100	C[C@@H](Oc1cc(-n2cnc3cnc(CNCCN4CCOCC4)cc32)sc1C(N)=O)c1ccccc1C(F)(F)F [Example 147, 5-(6-{[(2-morpholin-4-ylethyl)amino]methyl}-1H-imidazo[4,5-c]pyridin-1-yl)-3-{(1R)-1-[2-(trifluoromethyl)phenyl]ethoxy}thiophene-2-carboxamide]
10 to 100	CC(Oc1cc(-n2cnc3cc(CO)ncc32)sc1C(N)=O)c1ccccc1F (centres unmarked) [Example 163, 3-[-1-(2-fluorophenyl)ethoxy]-5-[6-(hydroxymethyl)-3H-imidazo[4,5-c]pyridin-3-yl]thiophene-2-carboxamide]
10 to 100	C[C@@H](Oc1cc(-n2cnc3cnc(CN4CCN(c5ccccc5)CC4)cc32)sc1C(N)=O)c1ccccc1C(F)(F)F [Example 59, 5-{6-[(4-phenylpiperazin-1-yl)methyl]-1H-imidazo[4,5-c]pyridin-1-yl}-3-{(1R)-1-[2-(trifluoromethyl)phenyl]ethoxy}thiophene-2-carboxamide]
< 10	C[C@@H](Oc1cc(-n2cnc3cnc(CN4CCN(CCCO)CC4)cc32)sc1C(N)=O)c1ccccc1C(F)(F)F [Example 108, 5-(6-{[4-(3-hydroxypropyl)piperazin-1-yl]methyl}-1H-imidazo[4,5-c]pyridin-1-yl)-3-{(1R)-1-[2-(trifluoromethyl)phenyl]ethoxy}thiophene-2-carboxamide]
10 to 100	C[C@@H](Oc1cc(-n2cnc3cnc(CN4CCC(N5CCN(C)CC5)CC4)cc32)sc1C(N)=O)c1ccccc1C(F)(F)F [Example 89, 5-(6-{[4-(4-methylpiperazin-1-yl)piperidin-1-yl]methyl}-1H-imidazo[4,5-c]pyridin-1-yl)-3-{(1R)-1-[2-(trifluoromethyl)phenyl]ethoxy}thiophene-2-carboxamide]
